These are literature values, as cited in US5969017A, “Methods of treating or preventing cardiac arrhythmia” (Merck & Co., Inc., priority 1997, dated 1999).

One data set relates to IKr. As to conditions: background; cited from earlier work.
For a further data set, the system named is L-type Ca2+ channels. As to conditions: Kass 1982; cited from earlier work.
The subject of the next data set is K+ currents. As to conditions: 0.4 mM as printed; cited from earlier work.
A further data set has as its target T1, IKs (Cavia porcellus, UniProt O70344).
T1 construct: Guinea pig ventricular myocytes were isolated; endogenous in cells; host or cells: isolated guinea pig ventricular myocytes
As to conditions: Balser et al., guinea pig ventricular myocytes; cited from earlier work.

A further data set relates to ICa. As to conditions: background; cited from earlier work.
For a further data set, the system named is INa. As to conditions: background; cited from earlier work.

T1 sequence (O70344 whole entry): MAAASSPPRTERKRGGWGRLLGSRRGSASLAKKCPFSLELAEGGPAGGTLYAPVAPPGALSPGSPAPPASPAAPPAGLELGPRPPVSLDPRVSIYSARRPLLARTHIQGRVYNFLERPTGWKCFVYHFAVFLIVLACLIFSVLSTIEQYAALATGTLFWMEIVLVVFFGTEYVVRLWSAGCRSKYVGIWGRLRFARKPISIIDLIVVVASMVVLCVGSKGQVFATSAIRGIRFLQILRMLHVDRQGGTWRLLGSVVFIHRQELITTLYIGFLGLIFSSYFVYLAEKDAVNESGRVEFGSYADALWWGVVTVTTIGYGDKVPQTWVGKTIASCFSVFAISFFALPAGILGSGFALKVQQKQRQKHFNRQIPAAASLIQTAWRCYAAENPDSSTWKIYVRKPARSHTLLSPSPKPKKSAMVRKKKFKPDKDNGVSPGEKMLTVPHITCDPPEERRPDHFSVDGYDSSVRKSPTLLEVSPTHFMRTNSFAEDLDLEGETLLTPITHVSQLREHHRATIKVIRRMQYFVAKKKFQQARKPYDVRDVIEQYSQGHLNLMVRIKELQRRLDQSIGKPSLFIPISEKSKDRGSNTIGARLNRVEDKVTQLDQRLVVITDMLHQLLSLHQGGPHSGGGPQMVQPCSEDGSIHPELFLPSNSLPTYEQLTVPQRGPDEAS
T1 sequence (Q60409 whole entry partner): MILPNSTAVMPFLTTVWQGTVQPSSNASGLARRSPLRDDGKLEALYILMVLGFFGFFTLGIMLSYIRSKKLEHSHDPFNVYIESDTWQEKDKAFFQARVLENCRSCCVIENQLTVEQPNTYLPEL

As for `CS(=O)(=O)Nc1ccc2c(c1)C(O)CC1(CCN(C3CCc4cc(C#N)ccc4C3)CC1)O2` (single isomer, unassigned) [MK-499, methanesulfonamide--N--[1'-6-cyano-1,2,3,4-tetrahydro-2-naphthalenyl)-3,4-dihydro-4-hydroxyspiro[2H-1-benzopyran-2,4'-piperidin]-6yl], (+)-, monochloride], the “block of IKr (in words)” value with IKr is “predominantly, if not exclusively, block IKr”.

In the case of `COC(=O)C1=C(C)NC(C)=C(C(=O)OCC(C)C)C1c1ccccc1[N+](=O)[O-]` (centres unmarked) [Nisoldipine], in the data set with L-type Ca2+ channels, the “block of L-type Ca2+ channels (in words)” value is recorded as “relatively specific blocker”. The “effect on K+ currents (in words)” value in the data set with K+ currents was “no effect on K^+ currents”.

On to `CCCCc1oc2ccccc2c1C(=O)c1cc(I)c(OCCN(CC)CC)c(I)c1` [amiodarone], for which the “block of IKs (in words)” value at IKs is on record as “blocker of IKs”. Also, the “block of ICa (in words)” value in the data set on ICa was “blocks INa and ICa”. In addition, the “block of INa (in words)” value in the data set on INa is “blocks INa”.

Consider `CC(C)NC[C@@H](O)c1ccc(NS(C)(=O)=O)cc1` [d-sotalol], for which, in the data set with IKr, the “block of IKr (in words)” value was “predominantly, if not exclusively, block IKr”.

Consider `CN(CCOc1ccc(NS(C)(=O)=O)cc1)CCc1ccc(NS(C)(=O)=O)cc1` [dofetilide], for which the “block of IKr (in words)” value with IKr is given as “predominantly, if not exclusively, block IKr”.
